Measured values published in PubChem BioAssay AID179 (DTP/NCI, 2004).
The source made the active and inactive calls.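 Rule for the calls: active = compounds giving half or more protection of infected cells from virus-caused growth loss, again on retest; inactive = the rest.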

Tested on: CEM cells HIV-1 protection, formazan growth assay
Test: NCI AIDS Antiviral Assay
Details: for IC50: measured here: growth of uninfected CEM cells
Method in brief: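 Screen of anti-HIV-1 activity in human CEM cells using a formazan-based growth measurement at five drug concentrations. Hits with 50% or greater protection were repeated, and confirmation required reproducible complete protection.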

Compound | EC50 [µM] | IC50 [µM] | outcome
CC#N.CC#N.COC(=O)[C@@H]1CN(C(=O)Cc2ccccc2)C(=O)[N-]1.COC(=O)[C@@H]1CN(C(=O)Cc2ccccc2)C(=O)[N-]1.COC(=O)[C@@H]1CN(C(=O)Cc2ccccc2)C(=O)[N-]1.COC(=O)[C@@H]1CN(C(=O)Cc2ccccc2)C(=O)[N-]1.[Rh+2].[Rh+2] | > 12 | 11 | –
Oc1ccccc1/C=N/N=C/c1ccccc1O | > 200 | > 200 | –
Cn1c2ccccc2c2nnc(-n3nc(-c4ccccc4)cc3N)nc21 | > 200 | 53.7 | –
OC(c1ccccn1)c1c(Cl)cccc1Cl (stereo not drawn) | > 200 | > 200 | –
CCCCCCCCCCCCOC(=S)NCCCC | – | – | inactive
Cn1c(O)c(C=Nc2ccccc2[N+](=O)[O-])c(=O)n(C)c1=O | – | – | inactive
CCC(=O)NC(Nc1ccc(O)cc1)(C(F)(F)F)C(F)(F)F | > 200 | 46.8 | –
O=[N+]([O-])c1ccc(C(Cl)S(=O)(=O)c2ccccc2)cc1 (stereo not drawn) | > 83.2 | 4.79 | –
CCCC(=N\N=C(N)N)/C(C)=N/N=C(N)N | > 79.4 | > 79.4 | –
CC1(C)CN=C(Nc2ccc(F)cc2)S1 | > 200 | > 200 | –
O=c1c2ccc(Cl)cc2oc2c(CNc3ccc(S(=O)(=O)Nc4nccs4)cc3)cccc12 | > 151 | > 151 | –
CC1C(C)(C)C23CC12C1(OCCO1)C3Br (stereo not drawn) | > 200 | > 200 | –
CC1=CC(C)(C)Nc2ccccc2N1 | > 200 | > 200 | –
C=C1SC(=Nc2c(C)cccc2C)N(c2nc(Cl)nc(Cl)n2)C12CCCCC2 | > 200 | 162 | –
COC(=O)C(C)(C)C(OP(=O)(OC)OC)=C(C)C | > 891 | > 891 | –
CCC(c1nc2ccccc2c(=O)n1NC(=O)C(C)(C)C)C1(O)CCCCC1 (stereo not drawn) | > 200 | 107 | –
Cc1ccc(/C=N/Nc2nc3ccccc3s2)s1 | > 200 | 67.6 | –
N=c1nc(-c2ccccc2)nc2[nH]c3c4cccc5cccc(c3nc12)c54 | > 200 | 67.6 | –
CCC(=O)c1c(CC)ccc2ccccc12 | > 200 | 105 | –
N#CC1(C#N)C=CC(=C2OCC3CCCN23)C=C1 (stereo not drawn) | – | – | inactive
C[N+]1(C2=C([O-])C(F)(F)C2=O)CCOCC1 | > 200 | > 200 | –
CCCCCCCn1ccnc1NCCCCCCCCCCNc1nccn1CCCCCCC | > 37.2 | 10 | –

Compound | EC50 [µM] | IC50 [µM] | outcome
COc1ccccc1OCc1nnc(SCC(=O)O)n1-c1ccccc1 | > 676 | > 676 | –
O=C(O)Cc1cccc2c(=O)c3cccc([N+](=O)[O-])c3[nH]c12 | > 200 | 102 | –
N#Cc1c(/N=C/c2cc(Cl)cc(Cl)c2O)sc2c1CCC2 | > 200 | > 200 | –
O=[N+]([O-])c1cccc2nc3ccccc3c(NCCC[N+]3([O-])CCCCC3)c12 | > 0.2 | 0.126 | –
Cc1ccc(C(=O)N2CCN(C(=O)c3ccc(C)cc3)c3ccccc32)cc1 | > 10.2 | 1.82 | –
N#CC(C#N)=Cc1ccc(C=C(C#N)C#N)cc1 | > 200 | 8.51 | –
CC1=C2C(=CC(C)(CO)C2O)C(=O)C(C)(O)C12CC2 (stereo not drawn) | – | – | inactive
CCCCc1ccc(Nc2ncc3ncn(COCCO)c3n2)cc1 | > 200 | 51.3 | –
CCCCOC/N=C(/N)NC#N | > 525 | > 525 | –
Cc1cc(C)c2c(c1)CC1(Cc3c(C)ccc(C)c3C1=O)C2=O (stereo not drawn) | > 100 | > 100 | –
COC(=O)c1ccc2c(O)c(O)ccc2c1 | > 200 | 3.16 | –
Cc1c2oc(=O)c(C#N)cc2c2ccccn12 | > 200 | > 200 | –
COc1ccc(/C=C2\SC(=S)N(C=C3C(=O)NC(=S)NC3=O)C2=O)cc1OC | > 200 | 29.5 | –
COc1cc(/C=C2\C(=O)N(c3cc(Cl)ccc3Cl)C(c3ccccc3)S2(=O)=O)cc(OC)c1OC (stereo not drawn) | > 200 | 120 | –
CCOP(=O)(Nc1ccc(-c2ccc(N)cc2)cc1)OCC | > 200 | 170 | –
CC1CCC2(OC2(C)C)C(=O)C1 (stereo not drawn) | > 200 | > 200 | –
CC(=O)SCCC1c2[nH]c3ccccc3c2CCN1O (stereo not drawn) | – | – | inactive
COP(=O)(OC)C(N)CCSC (stereo not drawn) | > 200 | > 200 | –
COc1ccc(CC2c3c(cc(OC)c(OC)c3OC)CCN2C)cc1OC (stereo not drawn) | > 589 | 158 | –
Cc1ccc(N=NN(C)C)cc1NC(=O)NCC(=O)OC(C)(C)C | > 200 | 107 | –
CC(=O)NNc1nc(C)c(C(=O)/C=C/c2ccc(Cl)c(Cl)c2)s1 | > 51.3 | > 51.3 | –
O=C(CCc1cc(O)cc(O)c1)NCCCNC(=O)CCc1cc(O)cc(O)c1 | > 200 | > 200 | –
